Experimental data reported in PubChem BioAssay (NCI).
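Method: 48-hour compound exposure of cells in 96-well plates, five concentrations, linear interpolation of endpoints. Definition used: TGI = concentration required for complete inhibition of growth.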

How the values were obtained:
Assay in all cases: NCI-60 cell line screen, 48 h
[1] = test system: SNB-19 CNS
[2] = test system: NCI-H23 lung
[3] = test system: COLO 205 colon
[4] = test system: OVCAR-4 ovarian
[5] = test system: M14 melanoma
[6] = test system: HOP-62 NSCLC
[7] = test system: SR leukemia
[8] = test system: NCI-H460 lung
[9] = test system: SK-MEL-28 melanoma
[10] = test system: SF-539 CNS
[11] = test system: TK-10 renal
[12] = test system: SK-MEL-2 melanoma
[13] = test system: UO-31 renal
[14] = test system: NCI-H226 lung
[15] = test system: CCRF-CEM leukemia
[16] = test system: K-562 leukemia
[17] = test system: SF-268 CNS
[18] = test system: A498 renal
[19] = test system: NCI/ADR-RES ovarian
[20] = test system: T-47D breast

Row | Structure (SMILES) | TGI [1] | TGI [2] | TGI [3] | TGI [4] | TGI [5] | TGI [6] | TGI [7] | TGI [8] | TGI [9] | TGI [10] | TGI [11] | TGI [12] | TGI [13] | TGI [14] | TGI [15] | TGI [16] | TGI [17] | TGI [18] | TGI [19] | TGI [20]
1 | O=C1COc2cc(NC(=S)Nc3ccccc3)ccc2N1 | > 100 µM | > 100 µM | > 100 µM | > 100 µM | > 100 µM | > 100 µM | > 100 µM | > 100 µM | > 100 µM | > 100 µM | > 100 µM | > 100 µM | > 100 µM | > 100 µM | > 100 µM | > 100 µM | > 100 µM | – | – | –
2 | O=S(=O)(O)c1ccc(N=Nc2ccc3c(S(=O)(=O)O)cccc3c2O)c2ccccc12 | > 100 µM | > 100 µM | > 100 µM | > 100 µM | > 100 µM | > 100 µM | – | – | > 100 µM | – | > 100 µM | > 100 µM | > 100 µM | > 100 µM | – | – | > 100 µM | > 100 µM | > 100 µM | > 100 µM
3 | C[C@@H](C(=O)O)N1C(c2ccco2)=C(/C(C=O)=C\c2ccco2)C(=O)/C1=C\c1ccco1 | > 100 µM | > 100 µM | > 100 µM | > 100 µM | > 100 µM | > 100 µM | – | – | > 100 µM | > 100 µM | > 100 µM | > 100 µM | > 100 µM | – | > 100 µM | > 100 µM | > 100 µM | > 100 µM | > 100 µM | > 100 µM
4 | N[C@@H]1CCN(c2c(F)cc3c(=O)c(C(=O)O)cn4c3c2Oc2c-4ccc3c2ccc2ccccc23)C1 | 10.4 µM | > 100 µM | > 100 µM | – | > 100 µM | > 100 µM | > 100 µM | 2.91 µM | > 100 µM | > 100 µM | 40 µM | > 100 µM | > 100 µM | > 100 µM | – | > 100 µM | > 100 µM | > 100 µM | > 100 µM | –
5 | CC1(C)OCN(c2ccc(N3CCOCC3)cc2)Cn2c1nc1ccccc12 | > 100 µM | > 100 µM | > 100 µM | > 100 µM | > 100 µM | > 100 µM | 92.7 µM | > 100 µM | > 100 µM | > 100 µM | > 100 µM | > 100 µM | > 100 µM | > 100 µM | > 100 µM | > 100 µM | > 100 µM | > 100 µM | – | –
6 | N#Cc1c(-c2ccc(Cl)cc2)c2c(n(C3OC(CO)C(O)C(O)C3O)c1=S)CCCC2 (centres undefined) | > 100 µM | > 100 µM | > 100 µM | > 100 µM | > 100 µM | > 100 µM | > 100 µM | > 100 µM | > 100 µM | > 100 µM | > 100 µM | > 100 µM | > 100 µM | > 100 µM | > 100 µM | > 100 µM | > 100 µM | > 100 µM | > 100 µM | –
7 | O=C1NC(=S)N/C1=C\c1cccs1 | > 100 µM | > 100 µM | > 100 µM | > 100 µM | > 100 µM | > 100 µM | – | – | > 100 µM | > 100 µM | > 100 µM | > 100 µM | > 100 µM | > 100 µM | > 100 µM | > 100 µM | > 100 µM | – | > 100 µM | > 100 µM
8 | NC(=Nc1ccccc1Cl)c1ccccc1N | > 100 µM | > 100 µM | > 100 µM | > 100 µM | > 100 µM | > 100 µM | > 100 µM | > 100 µM | > 100 µM | – | > 100 µM | > 100 µM | > 100 µM | > 100 µM | > 100 µM | > 100 µM | > 100 µM | > 100 µM | > 100 µM | –
9 | C=CCCON(C(=O)OC(C)(C)C)c1ccccc1 | > 100 µM | > 100 µM | > 100 µM | – | > 100 µM | > 100 µM | – | > 100 µM | > 100 µM | > 100 µM | > 100 µM | > 100 µM | > 100 µM | > 100 µM | > 100 µM | > 100 µM | > 100 µM | > 100 µM | > 100 µM | > 100 µM
10 | CC1C2CC(C(S(=O)(=O)O)C2=O)C1(C)C (centres undefined) | > 100 µM | > 100 µM | > 100 µM | > 100 µM | > 100 µM | > 100 µM | > 100 µM | > 100 µM | > 100 µM | > 100 µM | > 100 µM | – | > 100 µM | > 100 µM | > 100 µM | > 100 µM | > 100 µM | > 100 µM | – | > 100 µM
11 | COc1c(=O)cc2cc[nH]c3cc[nH]c1c23 | > 100 µM | > 100 µM | > 100 µM | > 100 µM | > 100 µM | – | > 100 µM | > 100 µM | > 100 µM | – | > 100 µM | > 100 µM | > 100 µM | > 100 µM | > 100 µM | > 100 µM | – | > 100 µM | > 100 µM | –
12 | Cc1ccc(-n2[nH]nc(C(N)=O)c2=O)cc1 | > 100 µM | > 100 µM | > 100 µM | > 100 µM | > 100 µM | > 100 µM | – | > 100 µM | > 100 µM | – | > 100 µM | – | > 100 µM | > 100 µM | > 100 µM | > 100 µM | > 100 µM | – | > 100 µM | > 100 µM
13 | COC(=O)[C@@H]1C[C@H]2OC(=O)CC[C@]2(C)O[C@H]1[C@H]1O[C@@](C)(O)CCC[C@H]1C | > 50 µM | > 50 µM | > 50 µM | > 50 µM | > 50 µM | > 50 µM | > 50 µM | > 50 µM | > 50 µM | > 50 µM | > 50 µM | > 50 µM | > 50 µM | > 50 µM | 39.3 µM | > 50 µM | > 50 µM | – | – | > 50 µM
